Results published in patent US11826414B2, “Measurement of afucosylated IgG Fc glycans and related vaccination methods” (priority 2017, dated 2023).
Where two headings read alike, the source gives them in different places.

Assays:
dengue 2 [1] = format: cell-based, dengue virus; conditions: for Inhibition of dengue 2 infection (ADE): FcγRIIa+FcγRIIIa+ monocytes, pre-incubation with inhibitor
dengue 2 [2] = format: cell-based, dengue virus; conditions: FcγRIIa+FcγRIIIa− U937 cells treated with PMA/ionomycin
Zika virus (ZIKV) = format: cell-based; conditions: DC-SIGN U937 cells, no antibodies present
[3] = tested on: H1N1 influenza virus (IAV); format: cell-based; conditions: DC-SIGN U937 cells, no antibodies present
[4] = tested on: H3N2 influenza virus (IAV); format: cell-based; conditions: DC-SIGN U937 cells, no antibodies present
[5] = tested on: FcγRIIa^+FcγRIIIa^+ monocytes; conditions: at concentrations tested

Compound | Inhibition of dengue infection (dengue 2 [1]; 5 μM peptide, all MOIs tested) | Inhibition of dengue 2 infection (ADE) (dengue 2 [1]) | Inhibition of dengue 2 replication, time of treatment (dengue 2 [1]; treatment of cells up to 2 hours following infection) | Inhibition of enhanced infection after PMA/ionomycin treatment (dengue 2 [2]) | Inhibition of infection (Zika virus (ZIKV)) | Inhibition of infection [3] | Inhibition of infection [4] | Cell viability [5] | Inhibition of dengue 2 infection (ADE) (dengue 2 [1]; listed as PRT)
11R-VIVIT | > 70% | inhibited dengue 2 infection in a concentration-dependent manner | inhibited dengue 2 replication | could be inhibited | did not inhibit | did not inhibit | did not inhibit | unaffected | –
Cc1cccc(Nc2nc(N[C@@H]3CCCC[C@@H]3N)ncc2C(N)=O)c1 [PRT318] | – | inhibited in FcγRIIa^+FcγRIIIa^+ monocytes in a concentration-dependent manner | – | – | – | – | – | – | inhibited dengue 2 infection in FcγRIIa+FcγRIIIa+ monocytes in a concentration-dependent manner
